Reference: ChEMBL document CHEMBL1201862, “PubChem BioAssay data set” (2004)
The source made the active and inactive calls.

Key:
[1] = molecular target: 1-phosphatidylinositol 4,5-bisphosphate phosphodiesterase beta-3 (Homo sapiens, UniProt Q01970); assay: Fluorescence-based biochemical high throughput dose response assay to identify inhibitors of phospholipase C isozymes (PLC-B3).
[2] = molecular target: 1-phosphatidylinositol 4,5-bisphosphate phosphodiesterase gamma-1 (Homo sapiens, UniProt P19174); assay: Counterscreen for inhibitors of phospholipase C isozymes (PLC-B3): Fluorescence-based biochemical high throughput dose response assay to identify inhibitors of phospholipase C isozymes (PLC-gamma1).
[3] = molecular target: DNA (cytosine-5)-methyltransferase 1 (Homo sapiens, UniProt P26358); assay: inhibition of DNA methylation by DNMT1 – biochemical, fluorescent molecular beacon, confirmation (AID 602386); format: functional
Caspase-7 = Caspase-7 (Homo sapiens, UniProt P55210); assay: caspase-7 enzyme inhibition, selectivity check – biochemical, DEVD-R110 fluorescence, cherry-pick, selectivity assay for caspase-6 inhibitor project, dose response (AID 743295); format: functional
[4] = molecular target: T1, Carboxy-terminal domain RNA polymerase II polypeptide A small phosphatase 1 (Homo sapiens, UniProt Q9GZU7); assay: CTDSP1 inhibitors, concentration-response, biochemical, absorbance readout, ultra-high-throughput screen actives (AID 540297); format: functional
T1 sequence (Q9GZU7 whole entry): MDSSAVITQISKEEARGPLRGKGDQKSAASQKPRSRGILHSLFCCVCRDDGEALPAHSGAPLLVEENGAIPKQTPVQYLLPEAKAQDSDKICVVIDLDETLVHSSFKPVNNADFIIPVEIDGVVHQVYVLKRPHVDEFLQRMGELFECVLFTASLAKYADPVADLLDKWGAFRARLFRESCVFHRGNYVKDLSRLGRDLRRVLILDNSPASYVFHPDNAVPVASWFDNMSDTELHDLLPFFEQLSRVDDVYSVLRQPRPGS

[5] = molecular target: 72 kDa type IV collagenase (Homo sapiens, UniProt P08253); assay: Dose Response validation of uHTS RPN11 inhibitor hits using a MMP-2 Fluorescence assay.; format: functional
Caspase-6 = molecular target: T2, Caspase-6 (Homo sapiens, UniProt P55212); assay: inhibition of CASP6 peptide cleavage – biochemical, VEID-R110 fluorescence, cherry-pick, dose response (AID 720632)
T2 sequence (P55212 whole entry): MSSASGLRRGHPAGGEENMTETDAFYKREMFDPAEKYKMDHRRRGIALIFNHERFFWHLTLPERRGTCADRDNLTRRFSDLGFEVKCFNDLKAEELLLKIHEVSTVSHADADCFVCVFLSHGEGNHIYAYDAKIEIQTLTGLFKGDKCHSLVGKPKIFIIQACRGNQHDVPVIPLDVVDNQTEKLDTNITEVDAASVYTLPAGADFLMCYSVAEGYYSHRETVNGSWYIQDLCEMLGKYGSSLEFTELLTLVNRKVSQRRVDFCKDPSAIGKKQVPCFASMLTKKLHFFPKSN

[6] = molecular target: 26S proteasome non-ATPase regulatory subunit 14 (Homo sapiens, UniProt O00487); assay: inhibition of proteasome subunit RPN11 – biochemical, fluorescence polarization, uHTS hits, confirmation (AID 602368); format: functional
Prothrombin = Prothrombin (Bos taurus, UniProt P00735); assay: thrombin protease inhibitors – biochemical, fluorescence polarization, uHTS hits, dose response (AID 602369); format: functional
[7] = molecular target: T3, Small ubiquitin-related modifier 1 (Homo sapiens, UniProt P63165); assay: SUMO1 protein interaction blockers, potency – biochemical, fluorescence polarization, uHTS hits, dose response (AID 624382); format: functional; settings: read-out: IC50_Mean
Caspase-8 = Caspase-8 (Homo sapiens, UniProt Q14790); assay: inhibitors of purified CASP8 protease – biochemical, Z-IETD-R110 fluorescence, cherry-picked samples, selectivity assay for caspase-6 inhibitor project, dose response (AID 743294)
[8] = molecular target: T3, Small ubiquitin-related modifier 1; assay: SUMO1 protein-protein binding blockers, potency – biochemical, FRET, dose response (AID 624383); format: functional; settings: read-out: IC50_Mean
[9] = viability loss in THP-1 monocytes – THP-1 cells, cytotoxicity control for Vif-APOBEC3G degradation inhibitor project, dose response (AID 1117359); format: functional; settings: THP-1
[10] = Counterscreen for inhibitors of Trypanosoma brucei methionyl tRNA synthetase (MetRS): Luminescence-based cell-based high throughput dose response assay to identify compounds that are cytotoxic to Jurkat human T lymphocyte cells.; format: functional
[11] = molecular target: T4, Methionyl-tRNA synthetase, putative (Trypanosoma brucei brucei, UniProt Q38C91); format: functional, Trypanosoma brucei brucei strain 927/4 GUTat10.1
T4 sequence (Q38C91 whole entry): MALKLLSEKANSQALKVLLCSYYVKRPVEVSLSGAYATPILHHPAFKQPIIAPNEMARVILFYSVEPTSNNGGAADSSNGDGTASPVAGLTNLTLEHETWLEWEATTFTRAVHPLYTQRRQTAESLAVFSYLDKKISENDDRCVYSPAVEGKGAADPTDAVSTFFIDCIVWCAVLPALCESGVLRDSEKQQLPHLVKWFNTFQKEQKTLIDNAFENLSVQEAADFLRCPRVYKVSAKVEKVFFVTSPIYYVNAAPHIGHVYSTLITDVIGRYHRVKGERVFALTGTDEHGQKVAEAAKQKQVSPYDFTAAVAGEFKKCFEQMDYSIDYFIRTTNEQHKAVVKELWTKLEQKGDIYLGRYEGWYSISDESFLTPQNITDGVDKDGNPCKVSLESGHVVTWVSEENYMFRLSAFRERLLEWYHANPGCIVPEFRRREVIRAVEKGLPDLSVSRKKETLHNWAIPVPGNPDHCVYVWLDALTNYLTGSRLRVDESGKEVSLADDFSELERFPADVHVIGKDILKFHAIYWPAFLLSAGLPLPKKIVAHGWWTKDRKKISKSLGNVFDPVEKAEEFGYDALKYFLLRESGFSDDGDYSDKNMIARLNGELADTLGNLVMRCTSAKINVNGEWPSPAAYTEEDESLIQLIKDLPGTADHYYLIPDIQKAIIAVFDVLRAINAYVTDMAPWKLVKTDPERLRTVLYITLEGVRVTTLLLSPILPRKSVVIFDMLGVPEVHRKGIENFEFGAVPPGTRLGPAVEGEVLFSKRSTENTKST

[12] = molecular target: T4, Methionyl-tRNA synthetase, putative; format: functional, Trypanosoma brucei brucei strain 927/4 GUTat10.1; remark: listed apart in the source
[13] = Late stage counterscreen for inhibitors of Trypanosoma brucei methionyl tRNA synthetase (MetRS): Luminescence-based cell-based high throughput dose response assay to identify compounds that are cytotoxic to Jurkat human T lymphocyte cells.; format: functional
[14] = inhibition of Env-driven cell fusion – HIV entry, plate reader, dry powder, dose response (AID 687023); format: functional, cell-based
[15] = luciferase signal loss, tTA control fusion, HeLa F-luc tTA cells, dry powder, counter-screen for HIV Env fusion inhibitor project, dose response (AID 687021); format: functional, cell-based
[16] = viability loss in CEM21 cells – cell-based, plate reader, dry powder, cytotoxicity control, dose response (AID 687026); format: functional
[17] = molecular target: Glutathione-S-transferase (Schistosoma japonicum, UniProt Q26513); assay: GST-antibody interaction or FRET quenching – biochemical, TR-FRET, artefact control for Vif-APOBEC3G degradation inhibitor project, dose response (AID 1117362); format: functional
[18] = general mammalian cell viability loss – inhibitor set, cherry-pick, set 2, cytotoxicity control for miR-122 modulator project, dose response (AID 720697); format: functional, cell-based
[19] = reduced cellular PGC1a acetyl-lysine signal – cell-based, cherry-picked samples, dose response (AID 720514); format: functional;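 note: potency may reflect raised or lowered acetylation signal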
[20] = activation of miR-122 Renilla sensor silencing – cell-based, Huh7 psiCHECK-miR122, Renilla luciferase, cherry-picked, dose response (AID 651956); format: functional;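 note: huh7 hepatoma cells stably carrying a psiCHECK-2 miR-122 sensor plasmid; renilla luciferase signal reporting endogenous miR-122 activity after 48 h compound exposure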
[21] = general mammalian cell viability loss – activator set, cherry-pick, cytotoxicity control for miR-122 modulator project, dose response (AID 720690); format: functional, cell-based;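 note: HEK293T human cells scored for general mammalian cytotoxicity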
[22] = viability of BHK-21 cells – cell-based, secondary screen, cytotoxicity control for flavivirus guanylyltransferase probe project (AID 624078); format: functional
[23] = inhibitors of non-replicating M. tuberculosis, dose response, luciferase, dry powder (AID 651620); format: functional; settings: Mycobacterium tuberculosis
[24] = inhibitors of non-replicating M. tuberculosis, dose response, luciferase, dry powder (AID 651619); format: functional; settings: Mycobacterium tuberculosis
[25] = Late-stage results from the probe development effort to identify antagonists of arginine vasopressin receptor 1a (AVPR1a): fluorescence-based cell-based dose response OXTR inhibition counterscreen assay.; format: functional
Vasopressin V1b receptor = Vasopressin V1b receptor (Homo sapiens, UniProt P47901); assay: Late-stage results from the probe development effort to identify antagonists of arginine vasopressin receptor 1a (AVPR1a): fluorescence-based cell-based dose response AVPR1b inhibition counterscreen assay.; format: functional
Vasopressin V2 receptor = Vasopressin V2 receptor (Homo sapiens, UniProt P30518); assay: Late-stage results from the probe development effort to identify antagonists of arginine vasopressin receptor 1a (AVPR1a): fluorescence-based cell-based dose response AVPR2 inhibition counterscreen assay.; format: functional
[26] = Late-stage results from the probe development effort to identify antagonists of arginine vasopressin receptor 1a (AVPR1a): fluorescence-based cell-based dose response AVPR1a inhibition assay.; format: functional
[27] = cytotoxicity in MITF-independent A375 cells – cell-based, CellTiter-Glo luminescence, dry powder, set 4, counter-screen for MITF inhibitor project, dose response (AID 624364); format: functional; settings: A-375;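 note: A375 melanoma cells are MITF independent so this is a counter screen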
[28] = viability loss in MITF-independent A375 cells – cell-based, CellTiter-Glo luminescence, dry powder, set 2, counter-screen for MITF inhibitor project, dose response (AID 624489); format: functional; settings: A-375;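 note: actives are compounds lowering A375 viability meaning general cytotoxicity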

T3 sequence (P63165 whole entry): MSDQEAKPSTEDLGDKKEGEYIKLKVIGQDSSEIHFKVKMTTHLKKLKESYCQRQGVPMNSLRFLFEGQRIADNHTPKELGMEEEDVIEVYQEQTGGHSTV
Caspase-8, sequence (Q14790 217-374 limits assumed): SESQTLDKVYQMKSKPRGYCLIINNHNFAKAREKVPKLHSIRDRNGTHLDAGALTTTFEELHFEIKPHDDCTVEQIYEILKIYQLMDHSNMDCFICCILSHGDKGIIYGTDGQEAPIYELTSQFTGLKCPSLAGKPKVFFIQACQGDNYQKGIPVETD
Caspase-8, sequence (Q14790 385-479 limits assumed): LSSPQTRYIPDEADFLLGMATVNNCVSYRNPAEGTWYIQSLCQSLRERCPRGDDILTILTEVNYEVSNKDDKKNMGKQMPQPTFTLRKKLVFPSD
26S proteasome non-ATPase regulatory subunit 14, sequence (O00487 whole entry): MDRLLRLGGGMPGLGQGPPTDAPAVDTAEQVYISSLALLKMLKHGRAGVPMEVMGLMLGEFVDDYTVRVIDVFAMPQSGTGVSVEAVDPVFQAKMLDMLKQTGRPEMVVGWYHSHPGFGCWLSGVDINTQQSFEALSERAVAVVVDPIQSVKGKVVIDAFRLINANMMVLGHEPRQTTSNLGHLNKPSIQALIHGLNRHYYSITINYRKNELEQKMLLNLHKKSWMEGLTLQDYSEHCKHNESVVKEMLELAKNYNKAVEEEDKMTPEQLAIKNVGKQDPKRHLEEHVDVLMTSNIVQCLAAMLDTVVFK
Glutathione-S-transferase, sequence (Q26513 whole entry): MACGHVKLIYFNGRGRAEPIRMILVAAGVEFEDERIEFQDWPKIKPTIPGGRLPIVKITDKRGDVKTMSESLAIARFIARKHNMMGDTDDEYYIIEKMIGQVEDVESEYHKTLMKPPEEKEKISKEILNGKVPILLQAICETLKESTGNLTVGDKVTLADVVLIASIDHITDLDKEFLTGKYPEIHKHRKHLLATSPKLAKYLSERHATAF
1-phosphatidylinositol 4,5-bisphosphate phosphodiesterase gamma-1, sequence (P19174 whole entry): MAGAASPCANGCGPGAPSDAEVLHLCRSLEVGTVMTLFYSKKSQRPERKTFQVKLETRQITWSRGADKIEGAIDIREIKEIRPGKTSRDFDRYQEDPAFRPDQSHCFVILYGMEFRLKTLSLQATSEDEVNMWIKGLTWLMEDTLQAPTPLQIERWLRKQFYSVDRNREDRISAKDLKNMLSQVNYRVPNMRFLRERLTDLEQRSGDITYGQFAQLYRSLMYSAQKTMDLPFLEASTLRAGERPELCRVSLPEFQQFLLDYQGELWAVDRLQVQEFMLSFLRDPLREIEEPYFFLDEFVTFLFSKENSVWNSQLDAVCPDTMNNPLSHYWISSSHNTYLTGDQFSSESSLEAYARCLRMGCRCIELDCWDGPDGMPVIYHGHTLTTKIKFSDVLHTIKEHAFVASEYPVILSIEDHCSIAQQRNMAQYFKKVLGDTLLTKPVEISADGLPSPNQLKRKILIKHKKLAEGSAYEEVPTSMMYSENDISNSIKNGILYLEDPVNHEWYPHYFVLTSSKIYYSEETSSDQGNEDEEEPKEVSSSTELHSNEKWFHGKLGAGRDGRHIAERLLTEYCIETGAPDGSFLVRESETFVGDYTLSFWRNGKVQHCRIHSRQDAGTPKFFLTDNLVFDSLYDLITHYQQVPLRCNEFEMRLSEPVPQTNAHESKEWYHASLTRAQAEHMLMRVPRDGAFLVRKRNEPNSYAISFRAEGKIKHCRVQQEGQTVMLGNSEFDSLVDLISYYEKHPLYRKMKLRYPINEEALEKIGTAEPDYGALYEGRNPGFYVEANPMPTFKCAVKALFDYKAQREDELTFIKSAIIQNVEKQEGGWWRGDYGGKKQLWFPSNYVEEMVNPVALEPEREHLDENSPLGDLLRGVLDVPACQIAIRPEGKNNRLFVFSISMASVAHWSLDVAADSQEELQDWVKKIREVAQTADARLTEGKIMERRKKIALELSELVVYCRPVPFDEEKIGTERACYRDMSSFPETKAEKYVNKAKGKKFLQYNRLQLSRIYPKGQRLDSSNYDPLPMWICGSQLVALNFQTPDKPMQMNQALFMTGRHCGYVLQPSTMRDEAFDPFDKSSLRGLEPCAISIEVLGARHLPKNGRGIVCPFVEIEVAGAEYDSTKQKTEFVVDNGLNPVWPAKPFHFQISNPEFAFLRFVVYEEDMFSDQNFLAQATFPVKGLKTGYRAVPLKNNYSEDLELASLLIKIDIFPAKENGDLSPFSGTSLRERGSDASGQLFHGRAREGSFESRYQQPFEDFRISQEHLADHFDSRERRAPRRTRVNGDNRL
72 kDa type IV collagenase, sequence (P08253 whole entry): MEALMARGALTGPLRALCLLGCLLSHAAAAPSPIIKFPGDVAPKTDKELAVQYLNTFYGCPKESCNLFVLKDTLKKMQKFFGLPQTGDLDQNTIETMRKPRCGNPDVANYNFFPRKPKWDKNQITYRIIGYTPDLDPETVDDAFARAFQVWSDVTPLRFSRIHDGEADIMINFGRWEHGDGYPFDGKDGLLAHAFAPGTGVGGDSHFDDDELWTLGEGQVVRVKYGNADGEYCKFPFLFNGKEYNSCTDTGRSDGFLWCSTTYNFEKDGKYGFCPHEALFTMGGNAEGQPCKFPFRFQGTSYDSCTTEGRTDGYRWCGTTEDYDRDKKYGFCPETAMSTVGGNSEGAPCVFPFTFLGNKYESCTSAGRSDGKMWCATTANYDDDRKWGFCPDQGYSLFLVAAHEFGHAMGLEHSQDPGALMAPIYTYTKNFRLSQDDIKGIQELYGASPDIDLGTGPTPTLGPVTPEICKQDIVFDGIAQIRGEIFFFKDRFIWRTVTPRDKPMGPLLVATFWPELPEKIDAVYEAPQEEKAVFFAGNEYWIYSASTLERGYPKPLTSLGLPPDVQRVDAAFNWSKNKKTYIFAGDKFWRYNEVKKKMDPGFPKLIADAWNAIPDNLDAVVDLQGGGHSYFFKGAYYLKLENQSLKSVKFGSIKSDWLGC
Vasopressin V2 receptor, sequence (P30518 whole entry): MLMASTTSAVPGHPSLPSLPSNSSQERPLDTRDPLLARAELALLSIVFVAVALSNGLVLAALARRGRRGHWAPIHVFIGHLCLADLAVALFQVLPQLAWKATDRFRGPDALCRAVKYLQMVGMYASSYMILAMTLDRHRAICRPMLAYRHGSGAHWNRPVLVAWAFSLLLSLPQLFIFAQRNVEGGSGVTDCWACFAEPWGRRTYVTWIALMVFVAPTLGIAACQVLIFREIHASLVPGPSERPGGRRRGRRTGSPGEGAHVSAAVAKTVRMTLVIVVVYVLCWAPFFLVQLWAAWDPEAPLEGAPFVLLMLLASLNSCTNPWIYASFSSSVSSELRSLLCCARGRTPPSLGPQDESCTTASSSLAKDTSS
Caspase-7, sequence (P55210 24-198 limits assumed): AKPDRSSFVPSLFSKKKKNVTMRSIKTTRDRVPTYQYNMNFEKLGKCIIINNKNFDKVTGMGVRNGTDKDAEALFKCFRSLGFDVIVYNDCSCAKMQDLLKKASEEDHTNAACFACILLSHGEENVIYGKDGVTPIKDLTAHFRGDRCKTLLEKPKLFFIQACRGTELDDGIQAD
Caspase-7, sequence (P55210 207-303 limits assumed): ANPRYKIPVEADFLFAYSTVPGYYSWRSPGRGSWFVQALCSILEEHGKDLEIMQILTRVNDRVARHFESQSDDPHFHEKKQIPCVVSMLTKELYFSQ
1-phosphatidylinositol 4,5-bisphosphate phosphodiesterase beta-3, sequence (Q01970 whole entry): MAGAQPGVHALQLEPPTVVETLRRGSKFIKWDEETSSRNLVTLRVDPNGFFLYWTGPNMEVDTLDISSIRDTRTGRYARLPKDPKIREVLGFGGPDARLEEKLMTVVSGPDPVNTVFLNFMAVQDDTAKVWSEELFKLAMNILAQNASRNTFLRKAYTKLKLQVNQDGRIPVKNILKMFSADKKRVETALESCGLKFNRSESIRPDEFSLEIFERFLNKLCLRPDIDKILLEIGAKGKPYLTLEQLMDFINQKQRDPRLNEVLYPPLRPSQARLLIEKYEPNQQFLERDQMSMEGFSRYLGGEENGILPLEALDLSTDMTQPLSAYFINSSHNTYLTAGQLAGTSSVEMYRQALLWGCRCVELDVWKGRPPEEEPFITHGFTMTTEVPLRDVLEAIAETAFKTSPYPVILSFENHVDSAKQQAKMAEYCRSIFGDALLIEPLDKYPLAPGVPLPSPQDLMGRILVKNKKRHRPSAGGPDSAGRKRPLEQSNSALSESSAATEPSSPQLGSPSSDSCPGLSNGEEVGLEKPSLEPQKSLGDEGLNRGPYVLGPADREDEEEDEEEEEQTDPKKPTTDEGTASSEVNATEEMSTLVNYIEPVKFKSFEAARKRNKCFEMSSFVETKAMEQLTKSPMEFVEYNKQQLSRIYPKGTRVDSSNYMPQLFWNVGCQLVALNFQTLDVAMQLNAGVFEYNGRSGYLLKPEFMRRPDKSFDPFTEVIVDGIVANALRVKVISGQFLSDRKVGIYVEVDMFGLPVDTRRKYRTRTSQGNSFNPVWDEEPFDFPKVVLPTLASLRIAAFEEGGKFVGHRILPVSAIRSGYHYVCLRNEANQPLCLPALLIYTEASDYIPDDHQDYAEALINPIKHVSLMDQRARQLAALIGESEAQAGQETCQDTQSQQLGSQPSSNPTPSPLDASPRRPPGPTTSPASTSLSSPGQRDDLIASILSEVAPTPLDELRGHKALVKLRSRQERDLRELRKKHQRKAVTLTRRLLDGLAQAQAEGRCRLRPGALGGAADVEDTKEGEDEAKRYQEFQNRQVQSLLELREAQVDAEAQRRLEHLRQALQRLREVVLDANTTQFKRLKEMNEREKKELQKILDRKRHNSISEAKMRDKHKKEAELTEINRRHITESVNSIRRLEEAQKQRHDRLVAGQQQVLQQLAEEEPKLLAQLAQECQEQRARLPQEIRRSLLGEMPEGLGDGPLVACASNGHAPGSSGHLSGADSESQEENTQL

Q: Which IC50 [1] does the source give for `COc1ccc(NC(=O)c2sc3cc(C(F)(F)F)cnc3c2-c2cccs2)cc1` here?
A: > 122 µM (inactive)

Q: What about the IC50 [2] of the same molecule?
A: > 122 µM (inactive)

Q: With `Cc1ccc(NC(=O)CN(C)C(=O)c2cccc(-n3cccc3)c2)cc1` as the molecule, how does the IC50 [3] read?
A: 9.26 µM (active)

Q: And the AC50 (Caspase-7)?
A: > 70 µM (inactive)

Q: What about the IC50 [4] of the same molecule?
A: 5.68 µM (active)

Q: What about the IC50 [5] of the same molecule?
A: 18.4 µM (active)

Q: What about the AC50 (Caspase-6) of the same molecule?
A: 1.5 µM (active)

Q: And the IC50 [6]?
A: 11 µM (active)

Q: What about the IC50 (Prothrombin) of the same molecule?
A: 86.9 µM (active)

Q: And the IC50 [7]?
A: > 66.6 µM (inactive)

Q: And the AC50 (Caspase-8)?
A: > 70 µM (inactive)

Q: What about the IC50 [8] of the same molecule?
A: 5.95 µM (active)

Q: What about the CC50 [9] of the same molecule?
A: > 40 µM (active)

Q: For `O=C1CC(SCc2nc3ccccc3[nH]2)C(=O)N1c1cccc(Cl)c1` (centres undefined), which IC50 [10] is on record?
A: 65 µM (inactive)

Q: What about the IC50 [11] of the same molecule?
A: 2.6 µM (active)

Q: What about the IC50 [12] of the same molecule?
A: 3.81 µM (active)

Q: And the IC50 [13]?
A: > 83.3 µM (inactive)

Q: Which AC50 [14] does the source give for `COC(=O)COc1ccc(S(=O)(=O)NCc2ccncc2)cc1` here?
A: 20.7 µM (active)

Q: What about the AC50 [15] of the same molecule?
A: > 70 µM (inactive)

Q: And the AC50 [16]?
A: > 70 µM (inactive)

Q: Which IC50 [17] does the source give for `CCOC(=O)C1CCCC12Nc1cccc3cccc(c13)N2` (centres undefined) here?
A: > 100 µM (active)

Q: With `COc1ccc(C#Cc2ccc([C@@H]3[C@H](CO)N4CCCCN(C(=O)Nc5ccccc5)C[C@@H]34)cc2)cc1` as the molecule, how does the AC50 [18] read?
A: 0.405 µM (active)

Q: And the AC50 [19]?
A: 9.62 µM (active)

Q: What about the AC50 [20] of the same molecule?
A: 7.42 µM (active)

Q: And the AC50 [21]?
A: 7.77 µM (active)

Q: With `O=[N+]([O-])c1cccc(S(=O)(=O)Nc2cc(Sc3nc4ccccc4s3)c(O)c3ccccc23)c1` as the molecule, how does the CC50 [22] read?
A: 11.5 µM (active)

Q: With `c1ccc(-c2nnc(SCC3CC3)o2)cc1` as the molecule, how does the IC90 [23] read?
A: 2 µM (active)

Q: And the IC90 [24]?
A: 2 µM (active)

Q: What does the source list for `COc1ccccc1N(CC1CC1)C(=O)N1CCN(c2ccccc2C)CC1`?
A: IC50 [25]: 12.3 µM (inactive); IC50 (Vasopressin V1b receptor): 17.9 µM (inactive); IC50 (Vasopressin V2 receptor): 12.3 µM (inactive); IC50 [26]: 0.292 µM (active)

Q: With `COc1ccc(C2=C(NC(=O)c3cccc(Cl)c3)C(=O)c3ccccc3C2=O)cc1` as the molecule, how does the AC50 [27] read?
A: 24.1 µM (active)

Q: And the AC50 [28]?
A: 18.2 µM (active)
